From paper PMC4222488, “Lipid droplet binding thalidomide analogs activate endoplasmic reticulum stress and suppress hepatocellular carcinoma in a chemically induced transgenic mouse model” (Lipids in Health and Disease, 2013)

Columns and labels:
DEN-induced liver tumors = experiment: DEN-induced hepatocellular carcinoma in Matn2-/- mice; type: in vivo; details: started 4 months after DEN, assessed 8 months after DEN
Protocol: All mice were fed a commercial diet and water ad libitum and were housed in an animal facility under a 12 h light/dark cycle at constant temperature and humidity. For all of our studies, we employed male Matn2-deficient mice (Matn2^−/−) congenic in the 129/Sv genetic background.
For studies of liver tumor development, 15-day-old mice were treated with a single dose of DEN (Sigma-Aldrich, Budapest, Hungary) dissolved in saline at a dose of 25 mg/kg body weight by i.p. injection. 4 months after DEN injection mice were treated with either Ac-915 for 3 months (n = 15) or with Ac-2010 for 1 month (n = 10). Mice were killed 8 months after DEN administration for determination of tumor occurrence (number of tumor nodules) and liver mass index (liver weight/body weight × 100). Treatments were conducted by i.p. injection of Ac-915 at a dose of 10 mg/kg body weight three times a week or Ac-2010 at a dose of 4 mg/kg body weight three times a week.
For studies of liver tumor development, 15-day-old mice were treated with a single dose of DEN as described previously. Mice in the Ac-915 treated group (n = 15) were treated 4 months after DEN treatment for an additional 3 months. […] Mice were killed 8 months after DEN administration and the number and size of tumors and liver mass index were determined.
Liver samples were analyzed at the same time point, 8 months after DEN administration. […]

HepG2 cell migration = experiment: Real-time cell migration assay, RTCA DP xCELLigence (CIM-plate 16); type: cell-based, human
human HSP70 = target: T1, human HSP70 (Homo sapiens, UniProt P0DMV8); experiment: Resonant waveguide optical biosensor binding assay; details: immobilized human recombinant protein, curve fitting
T1 construct: purchased Sino Biological
T1 sequence (P0DMV8 whole entry): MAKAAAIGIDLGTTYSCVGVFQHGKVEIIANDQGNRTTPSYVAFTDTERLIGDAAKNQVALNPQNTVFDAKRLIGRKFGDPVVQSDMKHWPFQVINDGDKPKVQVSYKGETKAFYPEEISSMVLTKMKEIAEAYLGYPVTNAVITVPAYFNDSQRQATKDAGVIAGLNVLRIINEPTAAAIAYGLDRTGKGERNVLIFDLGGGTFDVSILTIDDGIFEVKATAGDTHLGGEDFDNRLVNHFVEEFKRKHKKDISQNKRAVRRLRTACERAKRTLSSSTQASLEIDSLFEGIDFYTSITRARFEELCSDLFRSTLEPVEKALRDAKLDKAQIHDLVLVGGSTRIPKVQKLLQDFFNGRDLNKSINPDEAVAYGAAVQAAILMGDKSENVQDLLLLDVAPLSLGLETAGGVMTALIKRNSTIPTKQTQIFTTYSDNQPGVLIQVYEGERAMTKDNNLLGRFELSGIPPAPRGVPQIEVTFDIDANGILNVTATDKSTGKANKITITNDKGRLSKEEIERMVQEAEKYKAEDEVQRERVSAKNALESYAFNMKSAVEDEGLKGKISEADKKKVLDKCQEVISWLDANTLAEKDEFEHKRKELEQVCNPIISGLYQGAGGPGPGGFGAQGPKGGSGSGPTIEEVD
Protocol: (§1) Protein immobilization was accomplished by applying 10 μL of 50 μg/mL human PDI (Sino Biological Inc., Beijing, China) or 50 μg/mL human HSP70 (Sino Biological) or 100 μg/mL human HSP90 (Sino Biological) in 20 mM sodium acetate pH 5.5 into a preactivated 384-well biochemical plate (Perkin Elmer) and incubating overnight at 4°C. The microplates were subsequently washed three times with assay buffer (PBS, pH 7.4/0.005% Tween 20/3% DMSO) and, after 25 minutes thermal equilibration, a baseline reading was taken in the Enspire Multimode Plate Reader (Perkin Elmer). Finally, 15 μL assay buffer was added including different concentrations of Ac-915 or Ac-2010. The Enspire response is measured as a shift in reflected wavelength and is expressed in picometers (pm). The affinity (KD) was calculated using a curve fitting method.
(§2) Direct biomolecular interactions were determined between human recombinant and purified HSP70, HSP90, PDI proteins and Ac-915 and Ac-2010 with resonant waveguide optical biosensor technology in a biochemical binding assay. The technology is based on a microplate with resonant waveguide optical biosensors integrated into each well and a high throughput screening-compatible optical reader (Enspire system, Perkin Elmer). The biochemical interaction between the small molecule and the protein was measured as a shift in reflected wavelength and is expressed in picometers (pm). The binding of both analogs to each of the protein was specific and saturable with the dose response (data not shown).

human HSP90 = experiment: Resonant waveguide optical biosensor binding assay; details: immobilized human recombinant protein, curve fitting
Protocol: as §1, §2

PDI = PDI (Homo sapiens, UniProt P07237); experiment: Resonant waveguide optical biosensor binding assay; design: purchased Sino Biological Inc., Beijing, China; details: immobilized human recombinant protein, curve fitting
PDI, sequence (P07237 18-508): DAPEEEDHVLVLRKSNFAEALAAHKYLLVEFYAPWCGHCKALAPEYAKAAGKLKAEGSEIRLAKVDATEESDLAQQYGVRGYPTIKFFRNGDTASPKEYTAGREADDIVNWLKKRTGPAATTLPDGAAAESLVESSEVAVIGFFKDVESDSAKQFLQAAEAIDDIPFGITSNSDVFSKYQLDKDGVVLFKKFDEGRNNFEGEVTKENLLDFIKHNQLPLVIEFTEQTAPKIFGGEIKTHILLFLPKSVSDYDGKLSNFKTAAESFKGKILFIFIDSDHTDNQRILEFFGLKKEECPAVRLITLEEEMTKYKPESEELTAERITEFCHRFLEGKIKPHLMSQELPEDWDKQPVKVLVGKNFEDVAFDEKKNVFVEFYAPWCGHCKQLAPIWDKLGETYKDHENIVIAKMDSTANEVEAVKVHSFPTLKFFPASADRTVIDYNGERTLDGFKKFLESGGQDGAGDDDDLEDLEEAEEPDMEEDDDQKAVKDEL
Protocol: as §1
Direct biomolecular interactions were determined between human recombinant and purified HSP70, HSP90, PDI proteins and Ac-915 and Ac-2010 with resonant waveguide optical biosensor technology in a biochemical binding assay. The technology is based on a microplate with resonant waveguide optical biosensors integrated into each well and a high throughput screening-compatible optical reader (Enspire system, Perkin Elmer). The biochemical interaction between the small molecule and the protein was measured as a shift in reflected wavelength and is expressed in picometers (pm). […]

[1] = Acute toxicity (data not shown); type: in vivo
[2] = Solubility (data not shown); type: physicochemical
[3] = Tissue distribution by fluorescent confocal microscopy of native tissue sections after i.v. injection; type: in vivo; details: mice, i.v. 20 mg/kg
Protocol: Mice were injected i.v. with Ac-915 or Ac-2010 (20 mg/kg) and after different time points tissues were dissected, washed in PBS, embedded in Tissue-Tek® O.C.T™ medium. After fast-freezing, the samples were stored at −20°C. Tissue sections (20 μm) were prepared by using a Leica CM1950 cryostat at −20°C. From each tissue (liver, brain, kidney, muscle, heart) three independent images were recorded as above. Images were analyzed with the Olympus Fluoview 1.6 Ver Viewer software.
To determine the tissue distribution of trifluor-amino-phtalimides, compounds were administered by i.v. injection into mice, the animals were killed at different time points and different organs were dissected. Native microscope sections were prepared and analyzed under fluorescent microscope. Because our analogs have strong inherent blue fluorescence, relative tissue distribution can be determined by using fluorescent microscopy with 405 nm laser with DAPI configuration. […] The target organs of Ac-915 seemed to be the kidney and preferentially, the liver.

| SMILES | Liver tumor incidence, number of tumors and liver mass index vs untreated control (DEN-induced liver tumors; 4 mg/kg i.p. three times a week for 1 month, p < 0.01) | Inhibition of cell migration (HepG2 cell migration; 250 nM) | Inhibition of cell migration (HepG2 cell migration; higher concentration, 2 h after administration) | Kd (human HSP70) [µM] | Kd (human HSP90) [µM] | Kd (PDI) [µM] | Acute toxicity compared with Ac-915 [1] | Solubility compared with Ac-915 [2] | Liver tumor development vs control mice (DEN-induced liver tumors; 10 mg/kg i.p. three times a week for 3 months) | Fluorescence in the liver [3] | Time of peak fluorescence in the liver [3] [h] | Fluorescence in the kidney ([3]; 2 and 4 h after administration) | Fluorescence in the brain ([3]; 1 h after administration) | Fluorescence in the heart ([3]; 4 h after administration) |
| --- | --- | --- | --- | --- | --- | --- | --- | --- | --- | --- | --- | --- | --- | --- |
| CC(C)c1cccc(C(C)C)c1N1C(=O)c2c(F)c(F)c(F)c(NC(=O)NC(=O)CCl)c2C1=O [Ac-2010] | less liver tumor incidence, fewer tumors and lower liver mass index | inhibited migration | completely inhibited cell migration | ~16 | ~16 | ~6 | higher acute toxicity | better solubility |  |  |  |  |  |  |
| CC(C)c1cccc(C(C)C)c1N1C(=O)c2c(F)c(F)c(F)c(N[C@@H]3C=CS(=O)(=O)C3)c2C1=O [Ac-915, 2-[2,6-bis(propane-2-yl)phenyl]-4-{[(3R)-1,1-dioxo-2,3-dihydro-thiophene-3-yl]amino}-5,6,7-trifluoro-2,3-dihydro-1H-isoindole-1,3-dione] |  |  |  | 14 | 11.5 | ~10.5 |  |  | significantly less tumor development | strong fluorescent signals | 4 | strong signals | only a slight fluorescence increase | minor fluorescence increase |
